Laboratory results as given in PMC4914250, “Cancer therapeutic approach based on conformational stabilization of mutant p53 protein by small peptides” (Oncotarget, 2016).

tested on: mutp53^R175H; experiment: ELISA of mutp53 conformation (PAb1620/PAb240), H1299-p53^R175H cell extract; type: biochemical, human; conditions: H1299-p53^R175H cell extract, Figure 2A
Text: A total of close to 350 peptides, deduced from the phage sequences, were synthesized and subjected to several alternative complementary methods of semi high-throughput functional screening; we refer to these peptides as pCAPs (p53 conformation activating peptides). First, we used cell-free ELISA assays to evaluate the effect of individual peptides on mutp53 conformation and DNA binding in vitro. For conformation analysis (Figure 2A), microtiter plates were coated with PAb240, PAb1620 or PAb421 as control, then the effect of each peptide on reactivity of mutp53 with these antibodies was examined; WTp53 served as a positive control for PAb1620 reactivity.
Cell extracts were added to ELISA plates coated with the indicated antibodies to allow mutp53 to react with the peptides and antibodies. αp53-HRP Ab was used for assessment of p53 levels. Numbers represent ratio of absorbance between the PAb1620 and PAb240 samples. All reads were normalized to the control […] reading of each extract. MCF7 (WTp53) and H1299-mutp53^A135V (tsp53) cells were used as positive controls for the WTp53 conformation (1620/240 ratio equals or exceeds 5:1). […] 96 well plates were coated with anti-p53 antibody, cell extracts containing p53 were reacted with oligonucleotides that contain a p53RE consensus binding site, labeled with biotin, in the presence or absence (NT) of test peptides. Streptavidin-HRP is used to quantify the amount of oligos in the well. TMB assay was performed to determine bound mutp53 levels (450nm). MCF7 and the H1299-mutp53^A135V(TS) cells serve as positive controls for WTp53. C.and D. - Bar graphs illustrating the effect of various selected peptides on mut-p53 dependent expression on cell viability. […] D, ES2 cells expressing endogenous mutp53 (blue bars) and ES2 cells knocked out for p53 by CRISPR construct (light blue bars). Cell lines were treated with selected peptides, Cis-platinum was used as positive control for cell death. 48 hours after treatment, cells were washed with PBS, and the remaining attached cells were stained with Crystal violet and washed 4 times with PBS. Stained cells were dissolved in 10% acetic acid and plates were taken for optical density measurement at […]. TEXT PRINTED IN THE PICTURE: (A) pCAP1: 0.87 | (A) pCAP2: 0.53 | (A) pCAP3: 0.59 | (A) pCAP4: 0.59 | (A) pCAP5: 0.60 | (A) pCAP6: 0.75 | (A) pCAP23: 1.06 | (A) pCAP24: 1.44 | (A) pCAP36: 1.25 | (A) pCAP47: 1.54 | (A) pCAP54: 1.54 | (A) pCAP60: 2.73 | (A) pCAP68: 2.22 | (A) pCAP83: 1.56 | (A) pCAP97: 2.45 DOUBTS OF THE COPYIST ABOUT THIS PICTURE: Panel A: the numbers over the bars are printed very small, rotated and blurred, so 3, 5, 6, 8 and 9 cannot be told apart with certainty. All values are best readings: pCAP1 0.87, pCAP2 0.53, pCAP3 0.59, pCAP4 0.59, pCAP5 0.60, pCAP6 0.75, pCAP23 1.06, pCAP24 1.44, pCAP36 1.25, pCAP47 1.54, pCAP54 1.54, pCAP60 2.73, pCAP68 2.22, pCAP83 1.56, pCAP97 2.45 / Panel A: the picture prints no measure with the numbers over the bars, so they are given as bare numbers / Panel A: numbers are also printed over the controls, which are not substances and are left out of lines. Best readings: NT 0.60, 60° 30'' 0.48, 60° 1' 0.37, 60° 3' 0.13, 60° 10' 0.05, MCF7 3.32, H1299TS 3.25
Extracts were prepared at a concentration of 750ng/μl and then reacted for 2 hours with different peptides. Plates coated with the different antibodies were then washed and blocked, and extracts pre-incubated either with or without peptides were added for two additional hours. After removal of extracts, plates were washed and incubated with HRP-conjugated anti-p53 antibody. Finally, HRP activity was quantified by optical density at 450nm. MCF7 cells (expressing WTp53) and H1299-tsp53^A135V cells, stably expressing a temperature sensitive p53 mutant that has mutant conformation at 37°C but WT conformation at 32°C [31], were used as positive controls for the WTp53 conformation (1620/240 ratio 5:1). […]

Row | Substance | reactivity of p53^R175H with PAb1620 and PAb240
1 | SFILFIRRGRLG [pCAP-60] | increased the reactivity of p53^R175H with PAb1620 and decreased its reactivity with PAb240
2 | IRGRIIR [pCAP-54] | increased the reactivity of p53^R175H with PAb1620 and decreased its reactivity with PAb240
3 | YRRLLIGMMWRRRRRRRRR [pCAP-68] | increased the reactivity of p53^R175H with PAb1620 and decreased its reactivity with PAb240
4 | WNHHHSTPHPAH [pCAP-97] | increased the reactivity of p53^R175H with PAb1620 and decreased its reactivity with PAb240

same assay, conditions: score 0-6 compared to positive control; mutp53 conformation

Row | Substance | Conform H1299
5 | WNHHHSTPHPAHRRRRRR [pCAP-97R, pCAP-97 with poly arginine tail] | 1
6 | myr-RRLIVRILKLPNPPER [pCAP-242] | 2
7 | HHPWTHHQRWS [pCAP-20] | 2
8 | IRGRIIRRRRRRRRR [pCAP-54R, pCAP-54 with poly arginine tail] | 1
9 | LHSKTLVL [pCAP-17] | 2
10 | HANLHHT [pCAP-87] | 3
11 | myr-RRKILFIRLMHNKH [pCAP-227, myristoylated peptide, similarity to GAS2] | 2
12 | IRGRIIR [pCAP-54] | 3
13 | LRCLLLLIGRVGRRRRRRRR [pCAP-24R, pCAP-24 with poly arginine tail] | 3
14 | HSSHHHPVHSWN [pCAP-83] | 4
15 | IRILMFLIGCGR [pCAP-23] | 2
16 | YRRLLIGMMWRRRRRRRRR [pCAP-68] | 4
17 | IRILMFLIGCGRRRRRRRRR [pCAP-23R, pCAP-23 with poly arginine tail] | 2
18 | LRCLLLLIGRVG [pCAP-24] | 3
19 | YPTQGHLR [pCAP-36] | 5
20 | WNHHHSTPHPAH [pCAP-97] | 1

tested on: WI38; experiment: Crystal violet viability assay, WI38; type: cell-based; set-up: key: score 0- no effect-white; score 6- as or more effective than positive control- black; conditions: score 0-6 compared to positive control, 48 h
Protocol: (§1) Cells were cultured in 96 wells plates with 2500-4000 cells/well. Serial dilutions of different peptides were added and the plates incubated for additional 48 h at 37°C. Then medium was removed and cell viability was determined by staining the cells with crystal violet (0.05%) in methanol/PBS (1:5, v/v), for 10 min, followed by 3 washes with PBS. 10% acetic acid was added to each well for 10 min. OD was determined at 595 nm.

Row | Substance | Viability WI38
21 | myr-PRVLPSPHTIHPSQYP [pCAP-229, myristoylated peptide, similarity to HIPK2] | 3
22 | SFILFIRRGRLGRRRRRRRRR [pCAP-60R, pCAP-60 with poly arginine tail] | 2
23 | WNHHHSTPHPAHRRRRRR [pCAP-97R, pCAP-97 with poly arginine tail] | 4
24 | myr-RRLIVRILKLPNPPER [pCAP-242] | 4
25 | myr-RRKHNKHRPEPDSDER [pCAP-221] | 6
26 | IRGRIIRRRRRRRRR [pCAP-54R, pCAP-54 with poly arginine tail] | 4
27 | myr-RRIRDPRILLLHFD [pCAP-325] | 6
28 | myr-RRKILFIRLMHNKH [pCAP-227, myristoylated peptide, similarity to GAS2] | 3
29 | IRGRIIR [pCAP-54] | 4
30 | HSSHHHPVHSWN [pCAP-83] | 3
31 | IRILMFLIGCGRRRRRRRRR [pCAP-23R, pCAP-23 with poly arginine tail] | 2
32 | YPTQGHLR [pCAP-36] | 4
33 | WNHHHSTPHPAH [pCAP-97] | 4

tested on: HOP62; experiment: Crystal violet viability assay, HOP62; type: cell-based, human; set-up: key: score 0- no effect-white; score 6- as or more effective than positive control- black; conditions: score 0-6 compared to positive control, 48 h
Text: We also performed a similar analysis on ES2 ovarian cancer cells, which express endogenous mp53^S241F, compared to ES2 cells in which p53 was stably knocked out using CRISPR/Cas9 (ES2 p53KO Figure S1F), to control for specificity for mutp53 (Figure 2D). In ES2 cells, too, some of the peptides caused a significant reduction in cell numbers, more prominent in the mutp53 expressing cells than in their p53KO counterparts. […] Overall, we performed this analysis on several different mutp53-expressing human cancer cell lines, and the results are summarized in Table S3. Based on this comprehensive picture, we reduced the number of most promising candidate lead peptides to 30. These peptides were then synthesized with an 8 arginine C-terminal tail for enhanced delivery across cell membranes (pCAPs 130-160); for clarity, peptides are referred to by their original number, with an R for poly arginine (see Table S3).
as §1

Row | Substance | Viability HOP62
34 | EVTFRHSVV [pCAP-1, randomly selected peptide used as inert comparison] | 3
35 | myr-PRVLPSPHTIHPSQYP [pCAP-229, myristoylated peptide, similarity to HIPK2] | 4
36 | SFILFIRRGRLGRRRRRRRRR [pCAP-60R, pCAP-60 with poly arginine tail] | 2
37 | WNHHHSTPHPAHRRRRRR [pCAP-97R, pCAP-97 with poly arginine tail] | 4
38 | myr-RRLIVRILKLPNPPER [pCAP-242] | 5
39 | myr-RRKHNKHRPEPDSDER [pCAP-221] | 5
40 | IRGRIIRRRRRRRRR [pCAP-54R, pCAP-54 with poly arginine tail] | 2
41 | myr-RRIRDPRILLLHFD [pCAP-325] | 4
42 | SFILFIRRGRLG [pCAP-60] | 3
43 | HANLHHT [pCAP-87] | 3
44 | myr-RRKILFIRLMHNKH [pCAP-227, myristoylated peptide, similarity to GAS2] | 6
45 | IRILMFLIGCGR [pCAP-23] | 3
46 | YRRLLIGMMWRRRRRRRRR [pCAP-68] | 5
47 | IRILMFLIGCGRRRRRRRRR [pCAP-23R, pCAP-23 with poly arginine tail] | 3
48 | YPTQGHLR [pCAP-36] | 3
49 | WNHHHSTPHPAH [pCAP-97] | 4
